Data as given in publication PMC8485799, “Synthesis and Antiprotozoal Profile of 3,4,5‐Trisubstituted Isoxazoles” (ChemistryOpen, 2021).

Experiments:
[1] = system: promastigote forms of Leishmania amazonensis (WHOM/BR/75/JOSEFA strain); experiment: Antiproliferative assay (XTT), promastigote forms, 72 h; assay type: cell-based; conditions: for IC50: Leishmania amazonensis, promastigote form, 72 h, XTT, read-out: L. amazonensis IC50; for SIL-F, selectivity index (Fibroblast CC50/L. amazonensis IC50): fibroblast vs promastigote; for SIL-M, selectivity index (Macrophages CC50/L. amazonensis IC50): macrophages vs promastigote
Method: (§1) The antiproliferative activity was determined in promastigote forms of Leishmania amazonensis (WHOM/BR/75/JOSEFA strain) and epimastigote forms of Trypanosoma cruzi (Y strain). The promastigote forms of L. amazonensis were cultured in Warren medium (brain heart infusion, hemin, and folic acid; pH 7.4) supplemented with 10 % fetal bovine serum (FBS) at 25 °C. The epimastigote forms of T.cruzi were cultured in LIT medium (liver infusion tryptose; hemin, and folic acid; pH 7.4) supplemented with 10 % FBS at 28 °C. Cytotoxicity in mammalian cells was determined in fibroblast line (L929) and macrophages (J774 A1). Fibroblasts were cultured in DMEM medium (pH 7.2) supplemented with 10 % FBS at 37 °C in a 5 % CO2 atmosphere. Macrophages were cultured in RPMI‐1640 (pH 7.2) medium supplemented with 10 % FBS at 37 °C in a 5 % CO2 atmosphere.
(§2) Stock solutions of the compounds were prepared in DMSO and then diluted in the respective medium.
(§3) Promastigote forms (1×10^6 parasites.mL^−1) were cultured in 96‐well plates in the presence and absence of different concentrations of compounds diluted in Warren medium supplemented with 10 % FBS and incubated for 72 h. The epimastigote forms (1×10^6 parasites.mL^−1) were cultured in 96‐well plates in the presence and absence of different concentrations of compounds diluted in LIT medium supplemented with 10 % FBS and incubated for 96 h. After treatment, the parasites were incubated with a solution of 2,3‐bis(2‐methoxy‐4‐nitro‐5‐sulfophenyl)‐2H‐tetrazolium‐5‐carboxanilide (XTT; 0.5 mg.mL^−1) and phenazine methanesulfonate activator (PMS; 0.06 mg.mL^−1) in PBS for 4 h. Then, the absorbance was read in a microplate reader (Bio Tek‐Power Wave XS) at 450 nm.[20] The percentage of viable parasites was calculated in relation to the control in order to determine the concentration that inhibits 50 % of the protozoa (IC50). The control groups of each experiment received the same experimental conditions as the treated groups (cell concentration used, temperature, and incubation time).

[2] = system: epimastigote forms of Trypanosoma cruzi (Y strain); experiment: Antiproliferative assay (XTT), epimastigote forms, 96 h; assay type: cell-based; conditions: for IC50: Trypanosoma cruzi, epimastigote form, 96 h, XTT, read-out: T. cruzi IC50; for SIT-F, selectivity index (Fibroblast CC50/T. cruzi IC50): fibroblast vs epimastigote; for SIT-M, selectivity index (Macrophages CC50/T. cruzi IC50): macrophages vs epimastigote
Method: as §1, §2, §3

[3] = Cytotoxicity assay in mammalian cells (MTT), fibroblasts, 72 h; assay type: cell-based; conditions: mouse, L929 fibroblast cells, pH 7.2; 50 % inhibition of fibroblast growth, 72 h, MTT
Method: as §1, §2
(§4) Fibroblast cell (2.5×10^5 cells.mL^−1) suspensions were prepared in DMEM medium supplemented with 10 % FBS and added to 96‐well plates. Then, the plates were incubated at 37 °C in a CO2 atmosphere for 24 h to obtain confluent cell growth. After incubation, cells were treated with different concentrations of compounds diluted in DMEM for 72 h or left untreated. Macrophage (5×10^5 cells.mL^−1) suspensions were prepared in RPMI‐1640 medium supplemented with 10 % FBS and added to 96‐well plates. Then, the plates were incubated at 37 °C in a CO2 atmosphere for 24 h to obtain confluent cell growth. After incubation, cells were treated with different concentrations of compounds diluted in RPMI‐1640 for 48 h or left untreated. After treatment, the medium was removed, and cells were incubated with MTT (2 mg.mL^−1) for 4 h. Then, DMSO was added for solubilization of the formazan and analyzed with a reading microplate reader (BIO‐TEK PowerWave XS spectrophotometer) at […].[20] The percentage of viable cells was calculated in relation to the untreated control group to determine the cytotoxic concentration in 50 % of the cells (CC50). The control groups of each experiment received the same experimental conditions as the treated groups (cell concentration used, temperature, CO2, and incubation time).

[4] = Cytotoxicity assay in mammalian cells (MTT), macrophages, 48 h; assay type: cell-based; conditions: mouse, J774 A1 macrophages, pH 7.2; 50 % inhibition of macrophages growth, 48 h, MTT
Method: as §1, §2, §4

| Structure (SMILES) | IC50 [1] | SIL-F, selectivity index (Fibroblast CC50/L. amazonensis IC50) [1] | SIL-M, selectivity index (Macrophages CC50/L. amazonensis IC50) [1] | IC50 [2] | SIT-F, selectivity index (Fibroblast CC50/T. cruzi IC50) [2] | SIT-M, selectivity index (Macrophages CC50/T. cruzi IC50) [2] | CC50 at 72 h [3] | CC50 at 48 h [4] | melting point |
| --- | --- | --- | --- | --- | --- | --- | --- | --- | --- |
| CCOC(=O)c1noc(-c2ccc(Cl)cc2)c1CNc1ccccc1 [2 da] | 29.9 ± 2.1 µM | 5.28 | 5.17 | 32.9 ± 3.7 µM | 4.80 | 4.70 | 158 ± 7.7 µM | 155 ± 3 µM | 172.9 to 173.4 °C |
| CCOC(=O)c1noc(-c2ccc(Cl)cc2)c1CNc1ccc(Cl)cc1 [2 db] | 21.6 ± 2.2 µM | 4.61 | 4.07 | 22.4 ± 2.6 µM | 4.44 | 3.92 | 99.5 ± 5.7 µM | 87.9 ± 4.6 µM | 173.3 to 175.4 °C |
| NNC(=O)c1noc(-c2ccc([N+](=O)[O-])cc2)c1CNc1ccccc1 [3 aa, 3‐Carbohydrazide‐4‐(phenyl)aminomethyl‐5‐(4‐nitrophenyl)isoxazole] | 42.1 ± 1.3 µM | 4.71 | 3.39 | 39.8 ± 3.6 µM | 4.98 | 3.59 | 198 ± 9.5 µM | 142.8 ± 0.8 µM | 189 to 190.4 °C |
| NNC(=O)c1noc(-c2ccc([N+](=O)[O-])cc2)c1CNc1ccc(Cl)cc1 [3 ab] | 15.7 ± 0.4 µM | 6.26 | 5.84 | 12.1 ± 0.9 µM | 8.12 | 7.58 | 98.3 ± 4.1 µM | 91.7 ± 3.8 µM | 174.1 to 176.8 °C |
| COc1ccc(NCc2c(C(=O)NN)noc2-c2ccc([N+](=O)[O-])cc2)cc1 [3 ac] | 76.7 ± 0.6 µM | 6.51 | 5.25 | 82.9 ± 3.4 µM | 6.02 | 4.86 | 499 ± 2.7 µM | 403 ± 11.5 µM | 144.2 to 146.8 °C |
| COc1ccc(NCc2c(C(=O)N/N=C/c3ccccc3)noc2-c2ccc([N+](=O)[O-])cc2)cc1 [4 ac] | 14.5 ± 2.2 µM | 16.63 | 14.43 | 18.7 ± 1.4 µM | 12.89 | 11.19 | 241 ± 3.8 µM | 209 ± 8.5 µM |  |
| O=C(N/N=C/c1ccccn1)c1noc(-c2ccc([N+](=O)[O-])cc2)c1CNc1ccc(Cl)cc1 [5 ab] | 26 ± 2.1 µM | 3.88 | 3.55 | 24.7 ± 2.9 µM | 4.08 | 3.81 | 101 ± 4.4 µM | 94.2 ± 3.9 µM |  |
| COc1ccc(NCc2c(C(=O)N/N=C/c3ccccn3)noc2-c2ccc([N+](=O)[O-])cc2)cc1 [5 ac] | > 200 µM |  |  | > 200 µM |  |  | 801 ± 10.4 µM | 723.6 ± 3 µM |  |
| COc1ccc(NCc2c(C(=O)N/N=C/c3ccccn3)noc2-c2ccccc2)cc1 [5 bc] | 17.9 ± 3.7 µM | 10.3 | 9.88 | 19.4 ± 1.1 µM | 9.50 | 9.11 | 184 ± 5.1 µM | 177 ± 9.8 µM |  |
| COc1ccc(NCc2c(C(=O)N/N=C/c3ccccn3)noc2-c2ccc(F)cc2)cc1 [5 cc] | 18 ± 2.5 µM | 16.16 | 14.18 | 19.7 ± 0.9 µM | 14.76 | 12.96 | 291 ± 4.7 µM | 255 ± 8.1 µM |  |
| O=C(N/N=C/c1ccc(-c2cccs2)s1)c1noc(-c2ccc([N+](=O)[O-])cc2)c1CNc1ccc(Cl)cc1 [6 ab] | 12.7 ± 1.1 µM | 9.12 | 7.50 | 13.8 ± 1.5 µM | 8.39 | 6.91 | 116 ± 5.5 µM | 95.3 ± 5.3 µM |  |
| COc1ccc(NCc2c(C(=O)N/N=C/c3ccc(-c4cccs4)s3)noc2-c2ccc([N+](=O)[O-])cc2)cc1 [6 ac] | 48.9 ± 7.1 µM | 4.72 | 3.75 | 52.5 ± 2.9 µM | 4.40 | 3.50 | 231 ± 5.9 µM | 184 ± 3 µM |  |
| O=C(N/N=C/c1ccc(-c2cccs2)s1)c1noc(-c2ccccc2)c1CNc1ccccc1 [6 ba] | 46.9 ± 3 µM | 4.45 | 4.19 | 52.4 ± 2.9 µM | 3.98 | 3.75 | 209 ± 2.9 µM | 196 ± 4.4 µM |  |
| O=C(N/N=C/c1ccc(-c2cccs2)s1)c1noc(-c2ccc(F)cc2)c1CNc1ccccc1 [6 ca] | 34.6 ± 2.4 µM | 11.2 | 8.92 | 42.7 ± 5.6 µM | 9.07 | 7.22 | 388 ± 4.7 µM |  |  |
| O=C(N/N=C/c1ccc(-c2cccs2)s1)c1noc(-c2ccc(F)cc2)c1CNc1ccc(Cl)cc1 [6 cb] | 19.7 ± 2.6 µM | 10.9 | 10.6 | 20.4 ± 3.6 µM | 10.5 | 10.3 | 215 ± 8.9 µM | 210 ± 3.1 µM |  |
| COc1ccc(NCc2c(C(=O)N/N=C/c3ccc(-c4cccs4)s3)noc2-c2ccc(F)cc2)cc1 [6 cc] | 20.6 ± 1.7 µM | 15.32 | 12.97 | 22.8 ± 3 µM | 13.84 | 11.71 | 316 ± 10.8 µM | 267 ± 7.9 µM |  |
| O=C(N/N=C/c1ccc(-c2cccs2)s1)c1noc(-c2ccc(Cl)cc2)c1CNc1ccc(Cl)cc1 [6 db] | 38.5 ± 4.6 µM | 8.04 | 7.81 | 33.6 ± 4.8 µM | 9.21 | 8.94 | 310 ± 3.1 µM | 300 ± 4.2 µM |  |
